Measurements reported in PubChem BioAssay (NCI).
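Results reflect a 48-hour exposure of cells in 96-well plates to compound at five concentrations. Here, GI50 denotes the concentration required for 50% inhibition of growth. TGI: total growth inhibition.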

Columns and labels:
Experiment in all cases: NCI anticancer screen, dose series, 48 h
RPMI-8226 leukemia = test system: RPMI-8226 leukemia
UACC-62 melanoma = test system: UACC-62 melanoma
EKVX NSCLC = test system: EKVX NSCLC
NCI-H460 lung = test system: NCI-H460 lung
OVCAR-3 ovarian = test system: OVCAR-3 ovarian
HOP-92 NSCLC = test system: HOP-92 NSCLC
SNB-19 CNS = test system: SNB-19 CNS
SR leukemia = test system: SR leukemia
RXF 393 renal = test system: RXF 393 renal
OVCAR-8 ovarian = test system: OVCAR-8 ovarian
HCC-2998 colon = test system: HCC-2998 colon
CAKI-1 renal = test system: CAKI-1 renal
U251 CNS = test system: U251 CNS
K-562 leukemia = test system: K-562 leukemia
MCF7 breast = test system: MCF7 breast
TK-10 renal = test system: TK-10 renal
IGROV1 ovarian = test system: IGROV1 ovarian
NCI/ADR-RES ovarian = test system: NCI/ADR-RES ovarian
HCT-15 colon = test system: HCT-15 colon
SK-MEL-2 melanoma = test system: SK-MEL-2 melanoma
MDA-MB-231 breast = test system: MDA-MB-231 breast
NCI-H226 lung = test system: NCI-H226 lung
MOLT-4 leukemia = test system: MOLT-4 leukemia
786-0 renal = test system: 786-0 renal
SN12C renal = test system: SN12C renal
T-47D breast = test system: T-47D breast
HL-60(TB) leukemia = test system: HL-60(TB) leukemia
KM12 colon = test system: KM12 colon
ACHN renal = test system: ACHN renal
SF-295 CNS = test system: SF-295 CNS
SW-620 colon = test system: SW-620 colon
OVCAR-5 ovarian = test system: OVCAR-5 ovarian
M14 melanoma = test system: M14 melanoma
MDA-MB-435 = test system: MDA-MB-435
SK-MEL-5 melanoma = test system: SK-MEL-5 melanoma
UACC-257 melanoma = test system: UACC-257 melanoma
CCRF-CEM leukemia = test system: CCRF-CEM leukemia
BT-549 breast = test system: BT-549 breast
DU-145 prostate = test system: DU-145 prostate
PC-3 prostate = test system: PC-3 prostate
COLO 205 colon = test system: COLO 205 colon
HS 578T breast = test system: HS 578T breast
NCI-H522 lung = test system: NCI-H522 lung
SK-MEL-28 melanoma = test system: SK-MEL-28 melanoma
SNB-75 CNS = test system: SNB-75 CNS
OVCAR-4 ovarian = test system: OVCAR-4 ovarian
MALME-3M melanoma = test system: MALME-3M melanoma
SF-268 CNS = test system: SF-268 CNS
A549 NSCLC = test system: A549 NSCLC
LOX IMVI melanoma = test system: LOX IMVI melanoma
SF-539 CNS = test system: SF-539 CNS
A498 renal = test system: A498 renal
SK-OV-3 ovarian = test system: SK-OV-3 ovarian
HCT-116 colon = test system: HCT-116 colon
NCI-H23 lung = test system: NCI-H23 lung
UO-31 renal = test system: UO-31 renal
HT29 colon = test system: HT29 colon
HOP-62 NSCLC = test system: HOP-62 NSCLC

## CC(C)(O)c1cc2c(cc1C(C)(C)O)-c1ccccc1-2
RPMI-8226 leukemia
  TGI: > 100 µM
UACC-62 melanoma
  TGI: > 100 µM
EKVX NSCLC
  TGI: > 100 µM
NCI-H460 lung
  TGI: > 100 µM
OVCAR-3 ovarian
  TGI: > 100 µM
HOP-92 NSCLC
  TGI: > 100 µM
SNB-19 CNS
  TGI: > 100 µM
SR leukemia
  TGI: > 100 µM
RXF 393 renal
  TGI: > 100 µM
OVCAR-8 ovarian
  TGI: > 100 µM
HCC-2998 colon
  TGI: > 100 µM
CAKI-1 renal
  TGI: > 100 µM
U251 CNS
  TGI: > 100 µM
K-562 leukemia
  TGI: > 100 µM
MCF7 breast
  TGI: > 100 µM
TK-10 renal
  TGI: > 100 µM
IGROV1 ovarian
  TGI: > 100 µM
NCI/ADR-RES ovarian
  TGI: > 100 µM
HCT-15 colon
  TGI: > 100 µM
SK-MEL-2 melanoma
  TGI: > 100 µM
MDA-MB-231 breast
  TGI: > 100 µM
NCI-H226 lung
  TGI: > 100 µM
MOLT-4 leukemia
  TGI: > 100 µM
786-0 renal
  TGI: > 100 µM
SN12C renal
  TGI: > 100 µM
T-47D breast
  TGI: > 100 µM
HL-60(TB) leukemia
  TGI: > 100 µM
KM12 colon
  TGI: > 100 µM
ACHN renal
  TGI: > 100 µM
SF-295 CNS
  TGI: > 100 µM
SW-620 colon
  TGI: > 100 µM
OVCAR-5 ovarian
  TGI: > 100 µM
M14 melanoma
  TGI: > 100 µM
MDA-MB-435
  TGI: > 100 µM
SK-MEL-5 melanoma
  TGI: > 100 µM
UACC-257 melanoma
  TGI: > 100 µM
CCRF-CEM leukemia
  TGI: > 100 µM
BT-549 breast
  TGI: > 100 µM
DU-145 prostate
  TGI: > 100 µM
PC-3 prostate
  TGI: > 100 µM
COLO 205 colon
  TGI: > 100 µM
HS 578T breast
  TGI: > 100 µM
NCI-H522 lung
  TGI: > 100 µM
SK-MEL-28 melanoma
  TGI: > 100 µM
SNB-75 CNS
  TGI: > 100 µM
OVCAR-4 ovarian
  TGI: > 100 µM
MALME-3M melanoma
  TGI: > 100 µM
SF-268 CNS
  TGI: > 100 µM
A549 NSCLC
  TGI: > 100 µM
LOX IMVI melanoma
  TGI: > 100 µM
SF-539 CNS
  TGI: > 100 µM
A498 renal
  TGI: > 100 µM

## COc1ccc2c(c1OC)O/C(=C\c1ncc([N+](=O)[O-])n1C)C2=O
RPMI-8226 leukemia
  GI50: 3.07 µM
  TGI: 16.4 µM
UACC-62 melanoma
  GI50: 1.49 µM
  TGI: 3.36 µM
NCI-H460 lung
  GI50: 0.925 µM
  TGI: 4.83 µM
OVCAR-3 ovarian
  GI50: 1.6 µM
  TGI: 6.16 µM
HOP-92 NSCLC
  GI50: 1.45 µM
  TGI: 4.86 µM
SNB-19 CNS
  GI50: 3.69 µM
  TGI: 23.1 µM
SR leukemia
  GI50: 0.103 µM
RXF 393 renal
  GI50: 0.774 µM
  TGI: 2.27 µM
OVCAR-8 ovarian
  GI50: 0.639 µM
  TGI: 3.66 µM
SK-OV-3 ovarian
  GI50: 2.71 µM
  TGI: 9.1 µM
HCC-2998 colon
  GI50: 2.16 µM
  TGI: 4.73 µM
CAKI-1 renal
  GI50: 0.376 µM
  TGI: 2.46 µM
U251 CNS
  GI50: 2.95 µM
  TGI: 13.9 µM
K-562 leukemia
  GI50: 2.12 µM
  TGI: 7.99 µM
MCF7 breast
  GI50: 2.06 µM
  TGI: > 27.8 µM
TK-10 renal
  GI50: 3.26 µM
  TGI: > 24.1 µM
IGROV1 ovarian
  GI50: 1.36 µM
  TGI: 9.46 µM
NCI/ADR-RES ovarian
  GI50: 1.72 µM
  TGI: 7.87 µM
HCT-15 colon
  GI50: 0.487 µM
  TGI: 3.61 µM
HCT-116 colon
  GI50: 0.455 µM
  TGI: 3.68 µM
SK-MEL-2 melanoma
  GI50: 0.681 µM
  TGI: 1.72 µM
NCI-H23 lung
  GI50: 1.3 µM
  TGI: 5.6 µM
MDA-MB-231 breast
  GI50: 1.37 µM
  TGI: 5.32 µM
NCI-H226 lung
  GI50: 7.29 µM
  TGI: 50.8 µM
MOLT-4 leukemia
  GI50: 0.266 µM
786-0 renal
  GI50: 1.95 µM
  TGI: 5.17 µM
UO-31 renal
  GI50: 0.957 µM
  TGI: 4.39 µM
SN12C renal
  GI50: 1.78 µM
  TGI: 8.83 µM
T-47D breast
  GI50: > 70.9 µM
  TGI: > 100 µM
HL-60(TB) leukemia
  GI50: 0.834 µM
KM12 colon
  GI50: 2.79 µM
  TGI: 10.3 µM
ACHN renal
  GI50: 0.342 µM
  TGI: 1.46 µM
SF-295 CNS
  GI50: 3.13 µM
  TGI: 21.7 µM
SW-620 colon
  GI50: 0.385 µM
OVCAR-5 ovarian
  GI50: 2.82 µM
  TGI: 12.5 µM
M14 melanoma
  GI50: 0.591 µM
  TGI: 2.52 µM
MDA-MB-435
  GI50: 0.277 µM
  TGI: 1.11 µM
SK-MEL-5 melanoma
  GI50: 0.905 µM
  TGI: 2.35 µM
UACC-257 melanoma
  GI50: 0.788 µM
  TGI: 2.67 µM
CCRF-CEM leukemia
  GI50: 0.297 µM
  TGI: 2.83 µM
BT-549 breast
  GI50: 1.77 µM
  TGI: 4.46 µM
DU-145 prostate
  GI50: 1.42 µM
  TGI: 6.27 µM
PC-3 prostate
  GI50: 3.76 µM
  TGI: > 29.4 µM
HT29 colon
  GI50: 0.836 µM
  TGI: 5.02 µM
COLO 205 colon
  GI50: 1.16 µM
  TGI: 2.86 µM
HS 578T breast
  GI50: 2.15 µM
  TGI: > 22.8 µM
NCI-H522 lung
  GI50: 1.36 µM
  TGI: 3.48 µM
SK-MEL-28 melanoma
  GI50: 0.623 µM
  TGI: 3.43 µM
SNB-75 CNS
  GI50: 2.14 µM
  TGI: 6.85 µM
OVCAR-4 ovarian
  GI50: 5.95 µM
  TGI: > 75.2 µM
MALME-3M melanoma
  GI50: 1.15 µM
  TGI: 3.53 µM
SF-268 CNS
  GI50: 1.36 µM
  TGI: 6.39 µM
A549 NSCLC
  GI50: 2.59 µM
  TGI: 12.1 µM
LOX IMVI melanoma
  GI50: 0.482 µM
  TGI: 2.04 µM
SF-539 CNS
  GI50: 3.1 µM
  TGI: 10.2 µM
HOP-62 NSCLC
  GI50: 3.67 µM
  TGI: 17.4 µM
A498 renal
  GI50: 3.32 µM
  TGI: 10.4 µM
